Values after ≈ are worked out from the molar mass of the structure shown.
Legend:
mouse organ of Corti = assay: EdU proliferation assay in the mouse organ of Corti; format: in vivo; conditions: mice, single IP 300 mg/kg; for EdU-positive cells in the OC at 72 h: 72 h treatment group; for EdU-positive cells in the OC at 24 h and 48 h: EdU 50 mg/kg, 4 h, unpaired T-test, p < 0.05
Experimental: C57BL/6J male and female mice between postnatal day 24 and 30 P-24-30) were randomized into control and experimental groups (9 mice per group per compound), with each experimental group receiving a single intraperitoneal (IP) injection of Qx-294 or Qx-301 at a dose of 300 mg/kg body weight, dissolved in dimethyl sulfoxide (DMSO). Controls consisted of treatment with DMSO alone (vehicle). A total of 90 adult wild-type C57/BL6 mice were used in this study. Based on the analysis, animals were examined at various times following treatment as described below.
In vitro cell proliferation effects of all ten initial compounds (Figure 1A,B) were tested on HEI-OC1, Neuro-2A and HT-1080 cells by TACS® 3-(4,5-dimethylthiazol-2-yl)-2,5-diphenyltetrazolium bromide (MTT) Cell Proliferation Assay (R&D Systems, Minneapolis, MN, USA, 4890-025-K), following the manufacturer’s protocol. Absorbance was measured with SpectraMax® M Series Multi-Mode Microplate Reader with Soft Max Pro 7.2 GxP Software (Molecular Devices, Sunnyvale, CA, USA), and the average OD in control cells was taken as 100% of viability. Upon selecting the most viable compounds (Qx-294 and Qx-301), we proceeded with in vivo experiments. For zebrafish treatment, animals were incubated for varied times with different concentrations (50, 100, 150, 200, 250, and 300 μg/mL) of Qx-294 or Qx-301 diluted in swimming (E3) media or administered via IP injections. Mice treatment followed the same procedures as described in [18]. Following treatment, animals or tissue samples were incubated in Click-it EdU or Click-it Plus TUNEL kits (Thermo Scientific, Waltham, MA, USA), following the manufacturer’s instructions to label proliferating and apoptotic cells, respectively.
Cell numbers in mouse cochleae or fish, as well as fish neuromast morphologies, were evaluated in 25 zebrafish per drug and treatment group across three experimental runs. For mouse analyses, 18 cochleae (from 9 mice) per treatment and three experimental repetitions were examined. Images were analyzed at 200X magnification, obtained from different neuromasts and cochlear regions (apex, middle, and base). HCs were quantified in the mouse OC by counting M7a-positive cells, with HC identity further confirmed by phalloidin-labeled stereocilia. Apoptosis and cell proliferation events, on the other hand, were quantified by counting TUNEL- and EdU-positive cells, respectively. […] The number of HCs (IHCs and OHCs) is expressed as units per 200 μm. […] IHCs and OHCs were counted on reconstructed confocal stacks using NIH ImageJ v1.8.0 software. […] Reliability statistics were calculated in SPSS v22.0. […] Fluorescence incorporation following treatment with FM1-43 was quantified according to [19] using ImageJ. […]

[1] = system: mechanotransduction channel activity of neuromast HCs; assay: FM1-43 uptake in zebrafish neuromasts; format: in vivo, zebrafish (Danio rerio); conditions: 300 μM, 7 h, with or without 1 h recovery
Experimental: The styryl pyridinium dye FM1-43 provides an optical measure of mechanotransduction channel function and, therefore, was used as a proxy for the viability of the neuromast cells treated with QX-294 or QX-301, as well as indirect information on the functional capability of newly formed HCs. FM1-43FX (Thermo Scientific, Waltham, MA, USA) uptake experiments in zebrafish were performed as previously described. Zebrafish were incubated with E3 alone (control) or in the presence of Qx-294 or Qx-301, both at 300 μM, for 7 h and then immediately exposed to 3 μM FM1-43FX for 40 s. Alternatively, animals were transferred to a fresh E3 solution for 1 h and then exposed to the dye. For mouse treatment, 24, 48, and 72 h after animals were injected with […] Qx-294 or Qx-301, their cochleae were dissected, transiently exposed to FM1-43 FX dye (1 mg/mL) for 45 s, and then fixed in 4% PFA. All animals were P28 at completion of the treatment. Fluorescence incorporated was quantified according to [19] using ImageJ (ImageJ2 1.54r).

[2] = system: zebrafish neuromast cells; assay: TUNEL assay in zebrafish neuromasts; format: in vivo, zebrafish (Danio rerio); conditions: 6 h incubation, any concentration tested
Experimental: Absorbance was measured with SpectraMax® M Series Multi-Mode Microplate Reader with Soft Max Pro 7.2 GxP Software (Molecular Devices, Sunnyvale, CA, USA), and the average OD in control cells was taken as 100% of viability. […] Mice treatment followed the same procedures as described in [18]. Following treatment, animals or tissue samples were incubated in Click-it EdU or Click-it Plus TUNEL kits (Thermo Scientific, Waltham, MA, USA), following the manufacturer’s instructions to label proliferating and apoptotic cells, respectively.

Kinetic solubility assay = format: physicochemical; conditions: for solubility at 6 h: physiological buffer, pH 7.4, kinetic solubility, physiological buffer pH 7.4, room temperature, six hours
Experimental: A stock solution of each active compound in DMSO (10 mg/mL) was prepared and diluted into physiological buffer (pH 7.4) to a concentration of 100 µg/mL, and the mixture was left at room temperature for six hours. After six hours, the sample was centrifuged, and the supernatant was diluted with a methanol-water solution containing an internal standard (IS). The calibration curve was established using seven-point standards prepared by serial dilution in a range that the unknown sample signal would likely fall in and precisely simulating the sample preparation process. The standards and samples were quantified using LC-MS/MS, and unknown concentrations were back-calculated from the calibration curve.

| FM1-43 fluorescence intensity in neuromasts vs control [1] | Aqueous solubility (Kinetic solubility assay) | solubility at 6 h (Kinetic solubility assay) [µg/mL] | Compound | EdU-positive cells in the OC at 72 h (mouse organ of Corti) | EdU-positive cells in the OC at 24 h and 48 h (mouse organ of Corti) | Apoptosis (TUNEL) in neuromasts [2] |
| --- | --- | --- | --- | --- | --- | --- |
| no significant differences | low aqueous solubility | ~0.551 (≈ 2.56 µM) | c1ccc2nc(N3CCOCC3)cnc2c1 [Qx-294, 2-(morpholine)-quinoxaline] | no proliferating (EdU-positive) cells were observed | higher percentage of EdU-positive cells | no signs of apoptosis |
| no significant differences | low aqueous solubility | 0.365 ± 0.028 (≈ 1.83 µM) | c1ccc2nc(N3CCCC3)cnc2c1 [Qx-301, 2-(pyrrolidine)-quinoxaline] | no proliferating (EdU-positive) cells were observed | higher percentage of EdU-positive cells | no signs of apoptosis |

Source: paper PMC12731105, “Design and Synthesis of New Quinoxaline Analogs to Regenerate Sensory Auditory Hair Cells” (Cells, 2025)
